Laboratory results: patent publication US20240368145A1, “METHODS FOR TREATING CANCER” (IMMUNIC AG, priority 2021, published 2024)

Legend:
Format in all cases: cell-based
[1] = system: CAMKK2 mRNA; assay: Expression of AR target genes (qRT-PCR) in 22Rv1: CAMKK2; details: 22Rv1, 1 μM, 48h; relative to vehicle control (DMSO)
Protocol: (§1) The prostate cancer cell line 22Rv1 was treated for 48h with 1 μM Example compound 1, 1/1, 2/1, 2/2, 2/3, 2/4, 2/5, 2/6, 2/7, 2/8, 2/9 and 2/10 and reference compounds SR2211 and XY018. RNA was extracted using the RNA isolation kit XS (Macherey-Nagel) and following the manufacture's manual. RNA quantity was measured with the Nanodrop before reverse transcription using Superscript II (Invitrogen #100004925). For the quantitative real-time PCR with SYBR-Green (Qiagen #204074), the following primers were used:
(§2) qRT-PCR was performed using SYBR-Green (Qiagen #204074) reagents in a PCR cycler (Gorbett Research) Rotor Gene RG3000 with the following program: denaturation for 5′ at 95° C.; 40 cycles of 20″ at 95° C. and 15″ at 60° C.″ and at the end of the last cycle, the melting temperature of the products was determined by gradually increasing from 60° C. to 99° C. CT values from all samples were normalized to reference (housekeeping) genes using the mean CT value of the GAPDH and YWHAZ (reference genes). Next the values are put relative to the untreated control (vehicle/DMSO).

[2] = system: AR-V7 mRNA; assay: Androgen receptor RNA level expression (qRT-PCR) in 22Rv1: AR-V7; details: 22Rv1, 1 μM, 48 h; for mrna remaining at 1 µM: Homo sapiens, normalized to untreated control (vehicle/DMSO)
Protocol: The prostate cancer cell line 22Rv1 was treated for 48 h with 1 μM Example compound 1, 1/1, 1/2, 2/1, 2/2, 2/3, 2/4, 2/5, 2/6, 2/7, 2/8, 2/9 and 2/10 and the reference compounds SR2211 and XY018 (Nat. Med. 2016; 22:488). RNA was extracted using the RNA isolation kit XS (Macherey-Nagel) and following the manufacture's manual. RNA quantity was measured with the Nanodrop before reverse transcription using Superscript II (Invitrogen #100004925). For the quantitative real-time PCR with SYBR-Green (Qiagen #204074), the following primers were used: AR forward-ACATCAAGGAACTCGATCGTATCATTGC and reverse-TTGGGCACTTGCACAGAGAT, AR-V7: forward-CCATCTTGTCGTCTTCGGAAATGTTATGAAGC and reverse-TTTGAATGAGGCAAGTCAGCCTTTCTT. The qRT-PCR proceeded as follows: denaturation for 5 min 95° C.; 40 cycles of “20 sec at 95° C. and 15 sec at 60° C.” and at the end of the last cycle, the melting temperature of the products was determined by gradually increasing it from 60° C. to 99° C. CT values from all samples were normalized to two different reference (housekeeping) genes using the mean CT value of the GAPDH and YWHAZ (reference genes). Next the values are normalized to the untreated control (vehicle/DMSO).

[3] = target: T1, RORγt (Homo sapiens, UniProt P51449); assay: RORγt inhibition, Indigo Biosciences Human RAR-related Orphan Receptor, Gamma Reporter Assay System; details: luciferase reporter cells, 22-24 h incubation; read-out: IC50 range, RORγt assay
T1 sequence (P51449 269-518 limits assumed): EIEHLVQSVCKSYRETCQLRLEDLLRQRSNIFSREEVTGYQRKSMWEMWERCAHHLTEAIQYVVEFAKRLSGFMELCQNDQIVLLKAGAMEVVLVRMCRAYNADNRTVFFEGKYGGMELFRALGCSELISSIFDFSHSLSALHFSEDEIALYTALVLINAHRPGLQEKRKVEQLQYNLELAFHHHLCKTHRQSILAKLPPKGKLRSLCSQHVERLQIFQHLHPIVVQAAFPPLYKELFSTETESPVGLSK
Protocol: The in vitro inhibition of RORγt was measured using Indigo Biosciences Human RAR-related Orphan Receptor, Gamma Reporter Assay System (Product #11304001-32) as described in the technical manual. In brief, 200 μL of Reporter Cells is dispensed into wells of the assay plate and preincubated for 4-6 h. Following the pre-incubation period, culture media are discarded and 200 μL/well of the prepared 1×-concentration treatment media are added. Following 22-24 h incubation, treatment media are discarded and Luciferase Detection Reagent is added. The intensity of light emission (in units of ‘Relative Light Units’; RLU) from each assay well is quantified using a plate-reading luminometer. Average values of RLU were determined for each treatment concentration. Non-linear regression analyses were performed and IC50 values determined using GraphPad Prism software. Provided inverse-agonists ursolic acid served as positive control.

[4] = system: KLK2 mRNA; assay: Expression of AR target genes (qRT-PCR) in 22Rv1: KLK2; details: 22Rv1, 1 μM; for mrna remaining at 1 µM: Homo sapiens, 48h, relative to vehicle control (DMSO)
Protocol: as §1, §2

[5] = system: IFNγ; assay: Cytokine assay, human PBMC stimulated with PHA: IFNγ; details: PHA-activated, 48 hours, read-out: IFNγ inhibition (IC50 range)
Protocol: (§3) Peripheral blood mononuclear cells (PBMC) from healthy human donors were purified using Accuspin™ System-Histopaque-1077 (Sigma) according to the protocol recommended by the manufacturer. Purified PBMC were then washed twice with phosphate-buffered saline (PBS) and resuspended in RPMI1640 culture medium supplemented with 10% dialyzed heat inactivated fetal calf serum, 1.5 mM L-glutamine, 100 U penicillin/mL and […] streptomycin/mL (all from PAN Biotech, Aidenbach, Germany). For stimulation, PBMC were seeded at 1×10^5 cells/well, activated with 2 gg/mL phytohaemagglutinin (PHA, Sigma) and incubated with the test compounds for 48 hours. IL-17A, IL-17F and INFγ were then determined in the culture supernatant using a Luminex BioPlex system, following the manufacturer's instructions (BioRad, Munich, Germany). To determine the IC50, compounds were titrated semilogarithmically.
(§4) Cytokines were determined in the aforementioned culture supernatant using the following methods: IL-17A was measured using the human homodimer IL-17A ELISA Ready Set Go Kit from cBioscience (Frankfurt, Germany); IL-17F using the human IL-17F ELI-Pair from Holzel Diagnostica GmbH (K51n, Germany); and IFNγ using the OptEIA human IFN-g ELISA from BD Bioscience (Heidelberg, Germany), all following the manufacturer's instructions.

[6] = system: prostate cancer cell line VCaP; assay: Oncolead sulforhodamin B growth inhibition, VCaP; details: for GI50: Homo sapiens, VCaP, sulforhodamin B assay, 72 and 120 h treatment, read-out: GI50 range VCAP; for effect on growth of VCaP: highest dose (30 μM)
Protocol: (§5) Cell growth was assessed by measuring protein content using sulforhodamin B. Growth inhibition was calculated by (TCMD−T0)/TNCT72h−T0)*100% with TCMD is the tumor growth at 72 h with the respective compound concentration. To is the protein content of the cell line before treatment and TNCT72h is the tumor growth of the DMSO control.

[7] = system: prostate cancer cell line 22RV1; assay: Oncolead sulforhodamin B growth inhibition, 22RV1; details: Homo sapiens, sulforhodamin B assay, 72 and 120 h treatment, read-out: GI50 range 22RV1
Protocol: as §5

[8] = system: IL-17F; assay: Cytokine assay, human PBMC stimulated with PHA: IL-17F; details: PHA-activated, 48 hours, read-out: IL-17F inhibition (IC50 range)
Protocol: as §3, §4

SMILES | CAMKK2 mRNA expression [1] | AR-V7 mRNA expression [2] | mrna remaining at 1 µM [2] [%] | IC50 [3] [nM] | mrna remaining at 1 µM [4] [%] | IC50 [5] [nM] | GI50 [6] [µM] | effect on growth of VCaP [6] | GI50 [7] [nM] | IC50 [8] [nM] | KLK2 mRNA level expression ([4]; 48 h)
Fc1cccc(Cl)c1-c1noc(-c2cnn(-c3cccc(Cl)c3)c2C(F)(F)F)c1-c1nccs1 [Example 1/1] | 0.883 | strong reduction | 39.5 | < 10 | 74.2 | < 25 | ≥ 5 | No effect | < 25 | < 25 | –
CC(C)(O)CCn1ncc(-c2onc(-c3c(F)cccc3Cl)c2-c2ncccn2)c1C(F)(F)F [2/8] | 1.149 | strong reduction | 34.8 | 10 to 100 | 60.8 | < 25 | ≥ 5 | No effect | < 25 | < 25 | strong inhibition
COC(=O)c1c(-c2c(F)cccc2Cl)noc1-c1cnn(-c2cccc(Cl)c2)c1C(F)(F)F [Example 1, Methyl 3-(2-chloro-6-fluorophenyl)-5-(1-(3-chlorophenyl)-5-(trifluoromethyl)-1H-pyrazol-4-yl)isoxazole-4-carboxylate] | 0.884 | strong reduction | 37 | < 10 | 59.8 | < 25 | ≥ 5 | No effect | < 25 | < 25 | –
